We go through eleven molecules from publication doi:10.1101/2023.07.20.549922v1 (biorxiv, 2023).

The target of data set [1] is T1, AmGSTD1 (Apis mellifera, UniProt A0A8U0Y9D4).
T1 sequence (A0A8U0Y9D4 1-240): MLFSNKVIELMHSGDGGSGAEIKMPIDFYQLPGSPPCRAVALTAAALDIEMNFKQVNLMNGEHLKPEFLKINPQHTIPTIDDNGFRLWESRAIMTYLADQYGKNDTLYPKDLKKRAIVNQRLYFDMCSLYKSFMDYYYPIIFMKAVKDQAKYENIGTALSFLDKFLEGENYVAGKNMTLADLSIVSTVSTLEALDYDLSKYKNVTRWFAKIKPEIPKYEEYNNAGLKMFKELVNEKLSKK
Briefly: ANS displacement fluorescence, Ki from IC50. Format: binding.

Data set [2] concerns the target T1, AmGSTD1. Briefly: ANS displacement fluorescence. It is filed as binding.
The target of data set [3] is T1, AmGSTD1. Kind of data set: fluorescence saturation binding.
For data set [4], the target named is T1, AmGSTD1. Kind of data set: absorbance initial rates, Michaelis-Menten. The note with it: 4 mM GSH; 100 mM KPi pH 6.5; 30 °C.
Substrate in data set [5]: CC(=O)Oc1ccc([N+](=O)[O-])cc1
Kind of data set: purified protein. The settings on record: 4 mM GSH, 100 mM KPi pH 6.5, 30 °C.

Substrate in data set [6]: CCCCCC(O)/C=C/C=O
Briefly: purified protein. The note with it: 0.5 mM GSH, 100 mM KPi pH 6.5, 30 °C.

Substrate in data set [7]: S=C=NCCc1ccccc1
Briefly: purified protein. The note with it: 4 mM GSH, 100 mM KPi pH 6.5, 30 °C.

`O=C(O)COc1ccc(Cl)cc1Cl` [2,4-D] registered a Ki in data set [1] of 41.4 µM. Besides, the IC50 in data set [2] worked out at 1010 ± 56 µM.

In the case of `O=Cc1cccc(Oc2ccccc2)c1` [3-phenoxybenzaldehyde], the Ki in data set [1] was determined as 302 µM.

In data set [3], `O=S(=O)(O)c1cccc2cccc(Nc3ccccc3)c12` [ANS] displayed a Kd of 2.09 ± 0.102 µM.

Take `O=[N+]([O-])c1ccc(Cl)c([N+](=O)[O-])c1` [CDNB]: the Ki in data set [1] is 49.6 µM. Moreover, the IC50 in data set [2] was 1220 ± 55 µM. In addition, the Km in data set [4] is 525 ± 70 µM.

`CCCN=C=S` [PITC]: the Michaelis-Menten constant (Km) in data set [4] is 1100 ± 140 µM.

On to `Oc1nc(Cl)c(Cl)cc1Cl` [TCP], for which, in data set [1], the affinity, expressed as Ki, was 25 µM. Moreover, the IC50 in data set [2] was determined as 613 ± 27 µM.

In turn, `C=C(CC)C(=O)c1ccc(OCC(=O)O)c(Cl)c1Cl` [ethacrynic acid] showed a Ki in data set [1] of 41.5 µM. In data set [2], this molecule returned a concentration for half-maximal inhibition (IC50) of 1020 ± 40 µM.

`O=[N+]([O-])NC1=NCCN1Cc1ccc(Cl)nc1` [imidacloprid] showed an inhibitory constant (Ki) in data set [1] of 130 µM.

Take `CCCCC(C#N)(Cn1cncn1)c1ccc(Cl)cc1` (stereo not shown) [myclobutanil]: in data set [1], the affinity, expressed as Ki, was 148 µM.

For the molecule `O=C(O)COc1nc(Cl)c(Cl)cc1Cl` [triclopyr], the inhibition constant Ki in data set [1] turned out to be 76.1 µM. The molecule also registered an IC50 in data set [2] of 1860 ± 190 µM.

B1: AmGSTD1 (Apis mellifera) (protein)
chain: MLFSNKVIELMHSGDGGSGAEIKMPIDFYQLPGSPPCRAVALTAAALDIEMNFKQVNLMNGEHLKPEFLKINPQHTIPTIDDNGFRLWESRAIMTYLADQYGKNDTLYPKDLKKRAIVNQRLYFDMCSLYKSFMDYYYPIIFMKAVKDQAKYENIGTALSFLDKFLEGENYVAGKNMTLADLSIVSTVSTLEALDYDLSKYKNVTRWFAKIKPEIPKYEEYNNAGLKMFKELVNEKLSKK
Turning to B1, the Michaelis constant (Km) was determined as 1160 ± 90 µM in data set [5], 106 ± 34 µM in data set [6] and 819 ± 100 µM in data set [7]. Also, the kcat came out at 6.7 ± 0.233 s⁻¹ in data set [5], 0.345 ± 0.0433 s⁻¹ in data set [6] and 3.93 ± 0.2 s⁻¹ in data set [7].

By Ki is commonly meant the equilibrium dissociation constant of an inhibitor or competing ligand from its target. A high value points to lower affinity. Usually IC50 stands for the concentration needed to halve the response being measured. Low readings indicate greater potency, high ones weaker potency. As usually defined, the Kd is the free concentration of one partner at which half of the binding sites on the other are occupied at equilibrium, for simple one-to-one binding. High values mean a looser complex, low ones a tighter complex. One may read the Km as the concentration of substrate that gives half-maximal velocity. Usually kcat stands for the number of substrate molecules converted per active site and unit of time at saturation.
